Structures are written as SMILES.

One assay has as its target PDE 2A (Homo sapiens (Human), UniProt O00408). Description: Phosphodiesterase (PDE) 2A assay with fluorescent substrate (IMAP, fluorescence polarization). In kind it is biochemical. To be noted: labeled cAMP 30 nM, read-out: PDE2 IC50. How it is done:
(§1) The IMAP system (Molecular Device) using fluorescence polarization (FP) as detection principle was used to measure enzyme activity. A fluorescent labeled cAMP was used as substrate for the reaction, generating a labeled AMP. The fluorescent AMP binds specifically to the large M(III)-based nano-particles which reduces the rotational speed of the substrate and thus increases its polarization. Detailed Method: The inhibition of PDE 2A or 10 enzyme activity was assessed using IMAP-Phosphodiesterase-cAMP fluorescence labeled substrate (Molecular Devices, Order No. R7506), IMAP TR-FRET screening express (Molecular Devices, Order No. R8160, the TR-FRET component will not be used) and PDE 2A or PDE10 protein expressed upon baculovirus infection in SF9 cells. […] The cells were collected by centrifugation and the pellet frozen in liquid nitrogen before it was resuspended in PBS containing 1% Triton X-100 and protease inhibitors. After 45 min incubation on ice, the cell debris was removed by centrifugation (13.000 rpm, 30 min). […] All reactions were performed in 384 well plates, Perkin Elmer black optiplates and IMAP reaction buffer with 0.1% Tween20 (kit component) Compounds were serial diluted in DMSO. […] Reaction is stopped by adding of 60 μl binding buffer for FP/cAMP (kit component).
(In general: Polarisation of emitted light reports the rotation of a fluorescent probe.)

In another assay the target is PDE10 (Homo sapiens (Human), UniProt Q9Y233). Kind of assay: Phosphodiesterase (PDE) 10 assay with fluorescent substrate (IMAP, fluorescence polarization). To be noted: labeled cAMP 30 nM. In kind it is biochemical. Here is the method: as §1
Chain of PDE10 (Q9Y233 whole entry): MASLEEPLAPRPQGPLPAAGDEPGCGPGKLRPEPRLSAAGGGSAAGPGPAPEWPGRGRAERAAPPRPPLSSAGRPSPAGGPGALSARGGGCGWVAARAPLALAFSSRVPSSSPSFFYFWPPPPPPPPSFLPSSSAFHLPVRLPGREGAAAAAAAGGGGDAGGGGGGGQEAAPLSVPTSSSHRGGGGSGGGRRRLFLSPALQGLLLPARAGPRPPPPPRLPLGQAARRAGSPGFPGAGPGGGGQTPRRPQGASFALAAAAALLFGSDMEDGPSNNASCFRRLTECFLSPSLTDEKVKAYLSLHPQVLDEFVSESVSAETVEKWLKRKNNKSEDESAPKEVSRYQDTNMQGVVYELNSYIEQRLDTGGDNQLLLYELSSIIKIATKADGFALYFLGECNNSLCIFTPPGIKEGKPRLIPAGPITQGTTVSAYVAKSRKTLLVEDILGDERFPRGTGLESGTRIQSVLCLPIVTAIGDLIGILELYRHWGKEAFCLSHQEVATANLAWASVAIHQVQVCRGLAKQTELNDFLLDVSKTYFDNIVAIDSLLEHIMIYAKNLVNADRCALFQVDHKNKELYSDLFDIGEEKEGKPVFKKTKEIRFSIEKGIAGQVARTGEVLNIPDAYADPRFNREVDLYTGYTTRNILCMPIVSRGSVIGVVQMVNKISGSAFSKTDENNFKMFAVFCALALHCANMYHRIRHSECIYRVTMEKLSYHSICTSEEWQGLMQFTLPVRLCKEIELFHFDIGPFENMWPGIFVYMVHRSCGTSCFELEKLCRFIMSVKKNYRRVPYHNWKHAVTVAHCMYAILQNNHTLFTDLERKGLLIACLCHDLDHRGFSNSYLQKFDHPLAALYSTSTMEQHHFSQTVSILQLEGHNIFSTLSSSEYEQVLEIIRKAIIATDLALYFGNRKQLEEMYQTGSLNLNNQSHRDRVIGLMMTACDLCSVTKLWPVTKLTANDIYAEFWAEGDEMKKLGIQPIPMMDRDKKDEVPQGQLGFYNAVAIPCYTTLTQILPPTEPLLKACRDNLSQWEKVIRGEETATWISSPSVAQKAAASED

Chain of PDE 2A (O00408 whole entry, species assumed): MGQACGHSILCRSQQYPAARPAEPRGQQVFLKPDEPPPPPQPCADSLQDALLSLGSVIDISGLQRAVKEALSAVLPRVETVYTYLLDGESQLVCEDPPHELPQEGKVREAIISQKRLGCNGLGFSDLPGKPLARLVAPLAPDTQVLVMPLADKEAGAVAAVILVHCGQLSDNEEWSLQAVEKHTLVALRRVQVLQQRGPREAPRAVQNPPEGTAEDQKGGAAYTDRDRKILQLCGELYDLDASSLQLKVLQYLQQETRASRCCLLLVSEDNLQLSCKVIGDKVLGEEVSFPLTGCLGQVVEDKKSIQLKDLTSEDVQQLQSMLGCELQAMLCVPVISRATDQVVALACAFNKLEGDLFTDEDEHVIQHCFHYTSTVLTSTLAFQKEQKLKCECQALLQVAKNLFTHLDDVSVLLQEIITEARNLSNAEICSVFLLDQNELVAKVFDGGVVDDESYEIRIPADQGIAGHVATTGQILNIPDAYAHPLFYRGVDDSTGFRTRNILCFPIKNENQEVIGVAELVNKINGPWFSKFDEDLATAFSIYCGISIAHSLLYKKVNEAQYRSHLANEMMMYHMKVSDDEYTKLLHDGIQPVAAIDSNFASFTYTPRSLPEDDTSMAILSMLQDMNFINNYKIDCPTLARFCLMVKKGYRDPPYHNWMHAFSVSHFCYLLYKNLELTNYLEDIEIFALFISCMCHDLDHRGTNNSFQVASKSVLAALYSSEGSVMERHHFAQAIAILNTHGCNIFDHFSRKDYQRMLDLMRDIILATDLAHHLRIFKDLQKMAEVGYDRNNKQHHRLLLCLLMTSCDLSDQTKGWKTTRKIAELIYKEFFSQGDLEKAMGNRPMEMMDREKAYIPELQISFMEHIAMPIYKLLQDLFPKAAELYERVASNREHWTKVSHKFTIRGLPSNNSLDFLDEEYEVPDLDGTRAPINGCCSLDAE

By IC50 is commonly meant the concentration that inhibits the measured activity by half. As for `Cc1nn2cc(C3CC3)cnc2c1C(=O)NC1(c2ccc(C(F)(F)F)cn2)CCOCC1O` (racemic) [Example 63], the results for the IC50 on PDE 2A and at PDE10 were 124 nM and greater than 10000 nM, respectively.
Regarding `O=C(NC1(c2ccc(C(F)(F)F)cc2)CCOCC1O)c1cnn2cc(C3CC3)cnc12` (stereo not shown) [Example 60], the IC50 on PDE 2A was 22 nM; against PDE10, greater than 10000 nM.

Source of the values: patent US10875867B2, “Cyclic ether derivatives of pyrazolo[1,5-a]pyrimidine-3-carboxyamide” (Boehringer Ingelheim International GmbH, priority 2015, dated 2020).
